Measurements: patent publication US8334301B2, “5-Membered heterocyclic compound” (Takeda Pharmaceutical Company Limited, priority 2007, dated 2012)
Counter-ions that a name gives are not always drawn.

Biological target: T1, H+,K+-ATPase (Sus scrofa, UniProt P19156)
T1 construct: a microsomal fraction of gastric mucosa was prepared from the stomach of swine; from tissue; host or cells: swine stomach, gastric mucosa microsomal fraction
Assay: Proton Potassium-Adenosine Triphosphatase (H+,K+-ATPase) inhibitory activity test
Type: biochemical
Conditions: microsomal fraction of swine gastric mucosa; pH 6.5, 37° C., 10 mmol/L potassium chloride; malachite green colorimetry at 610 nm
Method: Proton Potassium-Adenosine Triphosphatase (H^+,K^+-ATPase) Inhibitory Activity Test
According to the method of Wallmark et al. [Biochim. Biophys. Acta, 728, 31 (1983)], a microsomal fraction of gastric mucosa was prepared from the stomach of swine. First, the stomach was removed, washed with tap water, and immersed in 3 mol/L sodium chloride, and the surface of the mucosa was wiped with a paper towel. The gastric mucosa was removed, minced, and homogenized in a 0.25 mol/L sucrose solution (pH 6.8) containing 1 mmol/L EDTA and 10 mmol/L tris-hydrochloric acid using polytron (Kinematica). The obtained homogenate was centrifuged at 20,000×g for 30 min and the supernatant was centrifuged at 100,000×g for 90 min. The precipitate was suspended in 0.25 mol/L sucrose solution, the suspension was superimposed on a 0.25 mol/L sucrose solution containing 7.5% Ficoll, and centrifuged at 100,000×g for 5 hr. The fraction containing the interface between the both layers was recovered, and centrifugally washed with 0.25 mol/L sucrose solution.
The obtained microsomal fraction was used as an H^+/K^+-ATPase preparation.
To 50 mmol/L HEPES-tris buffer (5 mmol/L magnesium chloride, 10 mmol/L potassium chloride, 10 μmol/L valinomycin, pH=6.5, 40 μL) containing 2.5 μg/mL enzyme preparation based on the protein concentration was added a test compound (5 μL) dissolved in 10% dimethyl sulfoxide solution, and the mixture was incubated at 37° C. for 30 min. A 2 mmol/L adenosine triphosphate tris salt solution (50 mmol/L HEPES-tris buffer (5 mmol/L magnesium chloride, pH 6.5), 5 μL) was added to start an enzyme reaction. The enzyme reaction was performed at 37° C. for 20 min, and then a malachite green solution (a mixture of 0.12% malachite green sulfate (2.5 mol/L) solution, 7.5% ammonium molybdate and 11% Tween 20 at a ratio of 100:25:2, 15 μL) was added to stop the reaction. The reaction mixture was stood at room temperature for 15 min, and the resulting reaction product of inorganic phosphorus and malachite green was measured by colorimetric quantification at a wavelength of 610 nm. In addition, the amount of inorganic phosphoric acid in a reaction solution free of potassium chloride was also measured in the same manner, and the value was extracted from that in the presence of potassium chloride, whereby the H^+,K^+-ATPase activity was measured. The inhibitory rate (%) was determined from the activity value of the control and that at each concentration of the test compound, and 50% inhibitory concentration (IC50) to H^+,K^+-ATPase was determined.

T1 sequence (P19156 2-1034 limits assumed): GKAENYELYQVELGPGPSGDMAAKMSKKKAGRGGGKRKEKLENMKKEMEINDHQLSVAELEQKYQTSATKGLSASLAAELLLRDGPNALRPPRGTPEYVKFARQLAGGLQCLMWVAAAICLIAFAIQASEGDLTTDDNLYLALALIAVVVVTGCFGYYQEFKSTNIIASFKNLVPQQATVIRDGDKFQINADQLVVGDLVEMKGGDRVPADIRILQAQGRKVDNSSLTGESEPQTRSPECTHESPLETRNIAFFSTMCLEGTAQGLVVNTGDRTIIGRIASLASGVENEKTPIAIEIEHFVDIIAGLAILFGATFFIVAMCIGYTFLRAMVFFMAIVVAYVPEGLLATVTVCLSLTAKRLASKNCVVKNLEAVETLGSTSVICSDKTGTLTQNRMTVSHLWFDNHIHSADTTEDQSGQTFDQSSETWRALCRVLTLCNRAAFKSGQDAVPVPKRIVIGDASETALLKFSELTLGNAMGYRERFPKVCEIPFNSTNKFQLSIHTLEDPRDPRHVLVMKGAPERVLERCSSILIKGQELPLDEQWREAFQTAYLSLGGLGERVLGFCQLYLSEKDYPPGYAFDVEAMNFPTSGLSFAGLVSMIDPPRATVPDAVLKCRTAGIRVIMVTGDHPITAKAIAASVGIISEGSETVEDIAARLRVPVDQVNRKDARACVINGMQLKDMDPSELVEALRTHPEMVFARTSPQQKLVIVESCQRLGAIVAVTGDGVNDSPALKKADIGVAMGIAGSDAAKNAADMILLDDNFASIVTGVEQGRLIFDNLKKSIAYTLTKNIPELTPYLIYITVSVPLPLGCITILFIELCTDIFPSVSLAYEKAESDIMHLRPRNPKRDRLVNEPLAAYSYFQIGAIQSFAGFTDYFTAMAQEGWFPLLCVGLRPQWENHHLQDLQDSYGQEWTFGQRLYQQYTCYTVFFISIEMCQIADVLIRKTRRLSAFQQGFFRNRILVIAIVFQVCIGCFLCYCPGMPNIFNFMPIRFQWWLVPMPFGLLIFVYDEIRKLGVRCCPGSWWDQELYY
T1 sequence (P18434 whole entry partner): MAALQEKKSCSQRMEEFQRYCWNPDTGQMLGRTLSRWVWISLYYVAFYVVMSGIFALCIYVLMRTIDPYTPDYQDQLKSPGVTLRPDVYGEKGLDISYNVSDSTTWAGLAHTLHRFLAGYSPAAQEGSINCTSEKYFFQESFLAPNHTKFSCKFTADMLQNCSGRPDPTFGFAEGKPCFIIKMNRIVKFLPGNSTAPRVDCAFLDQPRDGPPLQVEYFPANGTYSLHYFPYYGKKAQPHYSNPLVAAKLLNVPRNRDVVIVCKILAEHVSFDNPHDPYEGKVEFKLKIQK

SMILES | IC50 [µM]
CNCc1cn(Cc2ccc(F)cc2)c(-c2ccccc2)n1 [Example 3, 1-[1-(4-fluorobenzyl)-2-phenyl-1H-imidazol-4-yl]-N-methylmethanamine dihydrochloride] | 309
CNCc1nc(-c2ccccc2)n(Cc2ccc(F)cc2)c1Cl [Example 6, 1-[5-chloro-1-(4-fluorobenzyl)-2-phenyl-1H-imidazol-4-yl]-N-methylmethanamine oxalate] | 1.4
CNCc1cc(-c2ccccc2F)c(Sc2cccc(OC)c2)s1 [Example 10, 1-{4-(2-fluorophenyl)-5-[(3-methoxyphenyl)thio]-2-thienyl}-N-methylmethanamine fumarate] | 0.17
CNCc1cc(-c2ccccc2F)c([S+]([O-])c2cccc(OC)c2)s1 (stereo not shown) [Example 11, 1-{4-(2-fluorophenyl)-5-[(3-methoxyphenyl)sulfinyl]-2-thienyl}-N-methylmethanamine fumarate] | 0.4

Now from value to compound:

IC50 [µM] | SMILES
2.2 | CNCc1cc(-c2cccnc2F)c(Sc2nccs2)s1 [Example 18, 1-{4-(2-fluoropyridin-3-yl)-5-[(1,3-thiazol-2-yl)thio]thiophen-2-yl}-N-methylmethanamine fumarate]
0.22 | CNCc1cc(-c2cccnc2F)c(Sc2ccoc2C)s1 [Example 19, 1-{4-(2-fluoropyridin-3-yl)-5-[(2-methylfuran-3-yl)thio]thiophen-2-yl}-N-methylmethanamine hydrochloride]
0.031 | CNCc1cc(Sc2ccc(Cl)nc2)n(-c2ccccc2Cl)n1 [Example 27, 1-{1-(2-chlorophenyl)-5-[(6-chloropyridin-3-yl)thio]-1H-pyrazol-3-yl}-N-methylmethanamine hydrochloride]
